Data from the NIST ThermoML archive (doi:10.1016/j.jct.2006.05.007).

Settings: Liquid

CC(C)COC(C)(C)C [isobutyl tert-butyl ether]
Ebulliometric method (Recirculating still)
Settings | vapor or sublimation pressure [kPa]
310.61 K | 6.234
317.06 K | 8.426
322.6 K | 10.8
327.65 K | 13.43
333.13 K | 16.83
338.55 K | 20.88
343.33 K | 25.07
349 K | 30.91
354.26 K | 37.26
360.31 K | 45.83
366.48 K | 56.12
372.35 K | 67.49
378.59 K | 81.57
383.13 K | 93.18
383.92 K | 95.31
384.69 K | 97.44
385.45 K | 99.6

CC(C)OC(C)C [diisopropyl ether]
Twin ebulliometer
Settings | vapor or sublimation pressure [kPa]
308.58 K | 30.91
313.25 K | 37.26
318.65 K | 45.83
324.17 K | 56.12
329.4 K | 67.49
334.98 K | 81.57
339.03 K | 93.18
339.73 K | 95.31
340.41 K | 97.44

CCOC(C)(C)C [2-ethoxy-2-methylpropane]
Twin ebulliometer
Settings | vapor or sublimation pressure [kPa]
298.25 K | 16.83
303.13 K | 20.88
307.44 K | 25.07
312.55 K | 30.91
317.29 K | 37.26
322.74 K | 45.83
328.3 K | 56.12
333.56 K | 67.49
339.17 K | 81.57
343.23 K | 93.18
343.89 K | 95.31
344.57 K | 97.44
345.25 K | 99.6
345.92 K | 101.69
